{
  "source": "paper PMC6131539",
  "about": "“Behavioral Effects of a Potential Novel TAAR1 Antagonist” (Frontiers in Pharmacology, 2018)",
  "assay_type_in_all_cases": "in vivo",
  "key": {"C57BL/6J mice": {"system": "C57BL/6J mice", "test": "Basal locomotor activity in C57BL/6J mice", "experimental": "(§1) Experimentally naïve mice, of at least 12 weeks of age, were used for all behavioral experiments. The mice were randomly assigned to treatment or control groups, balanced by sex and weight. Locomotor activity was assessed using the automated locomotor analysis monitors (Omnitech Electronics, Columbus, OH, United States). The apparatus included four open field monitors. Each Open Field monitor consisted of sets of 16 light beams arrayed in the horizontal X and Y axes. The hardware detected beams broken by the animal, which allowed the software to determine the location of the mouse in the cage. Total distance covered by mice was used to characterize locomotor activity of the animals. The monitors were divided into four compartments (20 cm × 20 cm). Animals were tested individually for defined periods with 5-min intervals. The mice were first weighed and then placed into the apparatus, allowing for 30 min habituation. Following the habituation, the mice were removed from the al apparatus and injected with drugs (see below for administration) or vehicle and returned immediately to the locomotor chamber. The locomotor activity was then measured for additional 1 h. After the experiments, the animals were euthanized by cervical dislocation.\nAll drug solutions were prepared freshly on the day of the experiment and injected i.p. at the volume of 10 ml/kg. […] Amphetamine was dissolved in 0.9% saline at a concentration of 0.2 mg/mL.\nIn order to assess the effects of compound 22 on basal locomotor activity, C57BL/6 mice were injected with doses of 5 and 30 mg/kg of compound 22 or vehicle (Figure 1). At the dose of 5 mg/kg, compound 22 inhibited basal locomotor activity by 58% (^∗p = 0.02). Although not significant, there was a trend toward a decrease in locomotor activity at the dose of 30 mg/kg as well (26% decrease, p = 0.15).\nFIGURE 1 In vivo studies with compound 22 on basal locomotor activity. Wild type C57BL/6J mice were first habituated for 30 min followed by co-injection of saline or compound 22 at a dose of 5 or 30 mg/kg. The locomotor activity was assessed for 60 min after injection. […]"}, "[1]": {"system": "WT littermates (C57BL/6J × 129S2/Sv)", "test": "Basal locomotor activity in WT littermates of TAAR1-KO mice", "settings": "5 and 25 mg/kg alone, 60 min", "experimental": "as §1, with “The Taarl^-/- (TAAR1-KO) mice were obtained from Lundbeck ([Wolinsky et al., 2007]). All wild type (WT) and TAAR1-KO mice used for experiments were generated from TAAR1-KO heterozygous mice in a C57BL/6J x 129S1/Sv mixed background. Experimentally” for “Experimentally”, “Following the habituation, the mice were removed from the al apparatus and injected with drugs (see below for administration) or vehicle and returned immediately to the locomotor chamber.” left out, “[…] The locomotor activity was assessed for 60 min following” for “After”, “injection. […]” for “experiments, the animals were euthanized by cervical dislocation.”"}, "TAAR1-KO mice": {"system": "TAAR1-KO mice", "test": "Stereotypic counts, co-injection with amphetamine, TAAR1-KO mice", "settings": "only 15 mg/kg, co-injected with amphetamine 2 mg/kg", "experimental": "as §1, with “Following the habituation, the mice were removed from the al apparatus and injected with drugs (see below for administration) or vehicle and returned immediately to the locomotor chamber.” left out, “After the experiments, the animals were euthanized by cervical dislocation.” left out\nSupplementary file Image_2.TIF: FIGURE S2 In vivo studies with TAAR1-KO mice and compound 22 on stereotypic counts activity. […] The sum of stereotypic counts was assessed over 60 min after the injection of amphetamine and compound 22 in WT (solid bars) or TAAR1-KO mice (spotted bars). […] The sum of stereotypic counts was assessed over 60 min following the injection in WT (solid bars) or TAAR1-KO mice (dotted bars). […]"}},
  "data": [
    {"smiles": "Clc1ccc(CNCc2ccc(Cn3cncn3)cc2)c(Cl)c1", "note": "[compound 22]", "values": [
      {"measurement": "inhibition of basal locomotor activity", "setting": "C57BL/6J mice; 5 mg/kg i.p. alone, sum over 60 min vs saline, p = 0.02", "result": 58, "unit": "%"},
      {"measurement": "decrease in basal locomotor activity", "setting": "C57BL/6J mice; 30 mg/kg i.p. alone, sum over 60 min vs saline, not significant, p = 0.15", "result": 26, "unit": "%"},
      {"measurement": "effect on locomotor activity when administered alone", "setting": "C57BL/6J mice; 5 and 30 mg/kg i.p., administered alone", "result": "did not stimulate locomotor activity"},
      {"measurement": "effect on basal locomotor activity", "setting": "[1]", "result": "did not significantly alter"},
      {"measurement": "stereotypic counts", "setting": "TAAR1-KO mice", "result": "statistically significant increase in stereotypic counts"}
    ]}
  ]
}
